Measurements: patent US20080096858A1, “Method of Stabilizing Disordered Cefovecin Sodium Salt” (UNIVERSITY OF CONNECTICUT, priority 2004, published 2008)

Legend:
[1] = Storage stability at 40° C. of cefovecin sodium salt annealed at 75° C., monitored by RP-HPLC (Example 1); conditions: for relative rate constant k/k0 / degradation rate constant k: storage at 40° C.; for degradation rate constant k: zero-order model, SD in ( )
Description: Cefovecin sodium salt was dissolved in WFI at a concentration of 200 mg cefovecin sodium salt/ml. This solution was filtered using 0.22μ sterilized filters. 4.25 ml of this solution was volumetrically filled in the laminar flow hood into a 20-ml Flint Type I Tubular Treated Vials. 20 mm Lyophile D777-1, B2TR FluoroTec Single Vent Stoppers were partially inserted in the vials. The vials were lyophilized using Vertis freeze dryer (Gardiner, N.Y.) using the following cycle: frozen at −40° C. followed by vacuum drying at the shelf temperature of −18° C. for approximately 42 hours, and 60 millitore vacuum; secondary dried at a temperature of 40° C. for approximately 12 hours and 60 millitore vacuum. The lyophilizer chamber was back flushed with nitrogen and the vials were capped and sealed with aluminum shells.
Amorphous lyophilized cefovecin sodium salt was annealed in sealed vials at 75° C. for 20 and 60 min. The sealed vials with untreated cefovecin sodium salt (control), and vials with annealed cefovecin sodium salt were stored at 40° C. at ambient humidity for 6 and 12 weeks.
(§1) Reverse Phase High Performance Liquid Chromatography (RP-HPLC) was used to monitor degradation of cefovecin sodium salt. HPLC was carried out with a Waters Alliance (Milford, Mass.) system with a UV detector set at 256 nm and a Kromasil C4 column 4.6×250 mm, 5 μm, 100 angstrom pore size (Waters, Milford, Mass.). Column temperature was 30±2° C. and the samples were maintained in the auto sampler at 5±3° C. and the flow rate was 1 mL/min. Gradient method was used with mobile phase A consisting of (9:1) 0.025M sodium phosphate buffer solution, pH 6.5: acetonitrile in HPLC grade water, and mobile phase B consisting of (4:6) 0.025M sodium phosphate buffer solution, pH 6.5: acetonitrile in HPLC grade water.
(§2) The lyophilized cake was dissolved in WFI, and the solution was injected into the HPLC column. Contents of cefovecin sodium salt and a main degradant with relative retention time of approximately 1.6 were calculated as Ac/ΣAi, where Ac is the peak area of either cefovecin sodium salt or the degradant, and ΣAi is a total area of all chromatographic peaks. […] Stability data obtained for two annealed samples and the control sample are graphically illustrated in FIG. 1.
In addition, relative rate constants, k/k0 (where k0 is the rate constant of the control) were calculated in relation to control. The k/k0 are plotted in FIG. 2 as a function of annealing time at 75° C.

[2] = Physical form (crystallization) during thermal treatment; type: physicochemical; conditions: thermal treatment according to the invention; material remained amorphous
[3] = HPLC purity of thermally treated freeze-dried cefovecin sodium salt (Example 3, Table 3)
Description: as §1, §2
A freeze-dried formulation that contains cefovecin sodium salt was prepared as follows. Cefovecin sodium salt was dissolved in citrate buffer at pH 6.7. […] The solution contained 200 mg/ml of cefovecin sodium salt, 50 mM citrate buffer, 4.5 mg/ml methylparaben, and 0.5 mg/ml propylparaben. The solution was filled in 20 ml glass vials, 4.25 ml/vial. The vials were partially stoppered with single-vent D777-1 and loaded into a freeze-drier (Hull 450 FXS800S, Warminster, Pa.). The solution was frozen at −40° C. followed by primary drying at the shelf temperature of −10° C. and approximately 200 millitore vacuum; after the product temperature approached −12° C., secondary drying was performed at shelf temperature 40° C. for approximately 12 hours and 200 millitore vacuum. Lyophilized cefovecin sodium salt was prepared in a contract facility, SmithKline Beecham Corporation, Conshocken, Pa. […] The lyophilized samples were annealed in sealed vials at 160° C. for 120 min and 170° C./45 min. The untreated samples (control), and annealed samples were tested by HPLC; HPLC conditions are described in Example 1.

[4] = Storage stability at 40° C. for 6 months of cefovecin sodium salt annealed at 60° C., monitored by RP-HPLC (Example 2)
Description: as §1, §2
Amorphous lyophilized cefovecin sodium salt was annealed in sealed vials at 60° C. for 300 min in a contract lab, UCONN, Storrs, Conn. Untreated samples (control), and annealed samples were placed on stability at 40° C. for 6 months. Reverse Phase High Performance Liquid Chromatography was used to monitor degradation as described in Example 1.

[5] = annealed at 60° C.; stability study at 25 and 40° C.; cited from earlier work
[6] = after storage 12 weeks at 40° C., ambient humidity, annealed at 75° C.
[7] = 0 min annealing at 75° C. (control)
[8] = after storage 6 months at 40° C., annealed at 60° C.

With CO/N=C(\C(=O)N[C@@H]1C(=O)N2C(C(=O)[O-])=C([C@@H]3CCCO3)CS[C@H]12)c1csc(N)n1.[Na+] [cefovecin sodium salt] as the molecule, how does the “dimer level of annealed samples compared with control” value [1, 6] read?
Its value is “lower”.

And the “overall purity of annealed samples compared with control” value [1, 6]?
The value was “higher”.

What about the “degradation caused by annealing (initial time points)” value ([1]; annealing 20 and 60 min at 75° C., lower purity, higher dimer) of the same molecule?
Its value is “some degradation”.

What about the “effect of annealing on stability” value ([1]; annealing at 75° C.) of the same molecule?
Its value is “increased the stability”.

And the “relative rate constant k/k0” value [1, 7]?
The value was 1.00.

And the “degradation rate constant k” value [1, 7]?
Its value is −0.12 (0.01) %/week.

What about the “relative rate constant k/k0” value ([1]; annealed 20 min at 75° C.) of the same molecule?
Its value is 0.82.

And the “degradation rate constant k” value ([1]; annealed 20 min at 75° C.)?
The value was −0.095 (0.006) %/week.

And the “relative rate constant k/k0” value ([1]; annealed 60 min at 75° C.)?
The value was 0.71.

And the “degradation rate constant k” value ([1]; annealed 60 min at 75° C.)?
Its value is −0.082 (0.005) %/week.

What about the “crystallization during thermal treatment” value [2] of the same molecule?
Its value is “did not occur”.

And the Purity ([3]; after annealing 60° C./300 min (Example 2))?
The Purity was 98.1 area %.

And the Purity ([3]; after annealing 75° C./20 min (Example 1))?
Its Purity is 97.5 area %.

And the Purity ([3]; after annealing 75° C./60 min (Example 1))?
Its Purity is 97.5 area %.

What about the Purity ([3]; after annealing 160° C./120 minutes, freeze-dried formulation with citrate buffer, methylparaben, propylparaben (Example 3)) of the same molecule?
Its Purity is 69.8 area %.

And the Purity ([3]; after annealing 170° C./45 minutes, freeze-dried formulation with citrate buffer, methylparaben, propylparaben (Example 3))?
Its Purity is 70.3 area %.

What about the “degradation caused by annealing” value ([3]; annealing at 160° C. and 170° C.) of the same molecule?
Its value is “unacceptable levels of degradation”.

What about the “degradation caused by thermal treatment compared with examples 1 and 2” value ([3]; treatment at both 160° C. and 170° C.) of the same molecule?
Its value is “significant degradation”.

What about the “dimer level of annealed sample compared with control” value [4, 8] of the same molecule?
The value was “lower”.

What about the “purity of annealed sample compared with control” value [4, 8] of the same molecule?
Its value is “higher”.

And the “purity (cefovecin sodium salt)” value ([4]; annealed 60° C. 300 min, 0 months at 40° C.)?
The value was 98.11 area %.

What about the “purity (cefovecin sodium salt)” value ([4]; annealed 60° C. 300 min, 6 months at 40° C.) of the same molecule?
The value was 96.49 area %.

What about the “effect of annealing on stability” value ([4]; annealing at 60° C.) of the same molecule?
Its value is “increased the stability”.

What about the “purity (cefovecin sodium salt)” value ([4]; control (not annealed), 0 months at 40° C.) of the same molecule?
The value was 98.35 area %.

What about the “purity (cefovecin sodium salt)” value ([4]; control (not annealed), 6 months at 40° C.) of the same molecule?
Its value is 96.35 area %.

For CO[C@@]1(NC(=O)C(C(=O)[O-])c2ccc(O)cc2)C(=O)N2C(C(=O)[O-])=C(CSc3nnnn3C)COC21.[Na+].[Na+] (some centres unmarked) [moxalactam, moxalactam (di-sodium salt)], which “rate of decarboxylation of annealed sample compared with control” value [5] is on record?
Its value is “lower”.
